Measurements: patent publication US20040058876A1, “Secondary binding site of dipeptidyl peptidase IV (DP IV)” (priority 2002, published 2004)
Where two headings read alike, the source gives them in different places. Residues, ends and D or L forms follow the SMILES beside them.

What was measured:
[1] = target: T1, mu 15: recombinant human DP IV, mutation R560A (Homo sapiens, UniProt P27487, R560A); assay: Determination of Ki in competition to standard substrate GP-4NA; type: biochemical; conditions: mu 15 DP IV, competition to GP-4NA
T1 construct: His6 (N); made in house; host or cells: Pichia pastoris X-33 (vector pPICαC, secreted into the medium)
T1 sequence (P27487 37-766 R560A): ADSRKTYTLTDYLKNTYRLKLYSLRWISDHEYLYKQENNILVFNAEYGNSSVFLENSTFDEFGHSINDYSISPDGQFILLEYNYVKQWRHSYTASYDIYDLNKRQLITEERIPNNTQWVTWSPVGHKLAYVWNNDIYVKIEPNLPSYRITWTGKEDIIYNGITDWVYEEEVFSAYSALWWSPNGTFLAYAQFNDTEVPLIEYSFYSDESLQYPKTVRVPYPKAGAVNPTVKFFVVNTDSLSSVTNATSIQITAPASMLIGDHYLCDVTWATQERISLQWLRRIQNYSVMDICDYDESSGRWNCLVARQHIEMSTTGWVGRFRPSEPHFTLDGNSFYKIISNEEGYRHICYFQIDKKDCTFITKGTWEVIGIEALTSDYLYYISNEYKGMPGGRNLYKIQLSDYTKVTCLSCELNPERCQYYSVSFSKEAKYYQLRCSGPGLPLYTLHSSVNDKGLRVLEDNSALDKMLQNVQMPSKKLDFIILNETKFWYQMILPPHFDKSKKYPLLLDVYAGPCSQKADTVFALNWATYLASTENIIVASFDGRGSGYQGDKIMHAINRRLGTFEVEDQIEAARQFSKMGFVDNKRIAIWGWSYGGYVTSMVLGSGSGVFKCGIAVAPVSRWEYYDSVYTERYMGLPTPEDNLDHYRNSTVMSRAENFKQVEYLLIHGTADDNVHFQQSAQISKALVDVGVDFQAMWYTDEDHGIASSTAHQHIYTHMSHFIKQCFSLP
Description: (§1) In order to measure the inhibition constant Ki a photometric assay was used The peptides were measured as competitors of the standard substrate GP-4-Nitroanilide. Three different substrate concentrations (0.4 mM to 0.05 mM) were combined with 8 different competitor concentrations (0.5 mM to 2 μM). […] Experiments were carried out under standard conditions: 30° C. in pH 7.6 40 mM HEPES (Sigma-Aldrich) buffer. Nitroaniline production was monitored using a HTS 7000+ microplate reader (PerkinElmer, Überlingen, Germany).
(§2) For a reversible competitive inhibition is to assumed: [formula]

[2] = target: T2, mu 16: recombinant human DP IV, mutation W629A (Homo sapiens, UniProt P27487, W629A); assay: as above; type: biochemical; conditions: mu 16 DP IV, competition to GP-4NA
T2 construct: His6 (N); made in house; host or cells: Pichia pastoris X-33 (vector pPICαC, secreted into the medium)
T2 sequence (P27487 37-766 W629A): as the sequence (P27487 37-766 R560A) above, with A524R, W593A counted along it
Description: as §1, §2

DP IV [3] = assay: Determination of the half-life (t1/2) of DP IV-catalyzed peptide truncation by MALDI-TOF MS; conditions: truncation by DP IV
Description: (§3) The degradation fate of peptides was measured by monitoring the signal intensity of the pseudomolecular ion peaks of parent peptides and N-terminal shorted peptides versus time when incubated with 40 mU procine DP IV, recombinant human DP IV or serum DP IV activity. […] As control served the preincubation of DP IV with 0.01M Tris-buffer (Sigma-Aldrich, Deisenhofen, Germany). The mass spectrometer employed was a Hewlett-Packard G2025 model with a linear time of flight analyzer; samples (4 μL) were mixed 1:1 v/v with matrix (44 mg diammonium-hydrogen-citrate and 30 mg 2′,6′-dihydroxyacetophenone in 1 ml aqueous solution containing 50% acetonitrile and 0.05% trifluoroacetic acid; Sigma-Aldrich), transferred to a probe tip and immediately evaporated using the Hewlett-Packard G2024A (Hewlett-Packard, Waldbronn, Germany) sample preparation vacuum chamber. 250 single laser-shot spectra were accumulated. This method of monitoring biodegradation has been validated and allows the general comparison of half-degradation times (t1/2) under various conditions.
(§4) The t1/2-calculation followed this procedure:
(§5) The height of the substrate peak was measured and set as 100% at time=0. During the reaction course the sum of substrate and product peak height were set as 100% and the percentage of the remaining substrate peak (also expressed as relative concentration) was determined. Diagrammed relative substrate concentration versus time t1/2 can be calculated based on first order exponential decay reaction course. [formula]

[4] = as above
Description: as §3, §4, §5

[5] = target: T3, rh wt: recombinant human DP IV, wild type (Homo sapiens, UniProt P27487); assay: Determination of Ki in competition to standard substrate GP-4NA; type: biochemical; conditions: competition to GP-4NA
T3 construct: His6 (N); made in house; host or cells: Pichia pastoris X-33 (vector pPICαC, secreted into the medium)
T3 sequence (P27487 37-766): as the sequence (P27487 37-766 R560A) above, with A524R counted along it
Description: as §1, §2

porcine DP IV = target: T4, porcine DP IV (Sus scrofa, UniProt P22411); assay: MALDI-TOF approach: Ki of TFTSDY on DP IV-catalyzed peptide truncation; type: biochemical; conditions: K1, inhibitory effect on DP IV-catalyzed peptide truncation
T4 construct: purified DP IV from human, from porcine kidney, of recombinant human DP IV; from tissue; host or cells: porcine kidney
T4 sequence (P22411 whole entry, the tested form may be a part): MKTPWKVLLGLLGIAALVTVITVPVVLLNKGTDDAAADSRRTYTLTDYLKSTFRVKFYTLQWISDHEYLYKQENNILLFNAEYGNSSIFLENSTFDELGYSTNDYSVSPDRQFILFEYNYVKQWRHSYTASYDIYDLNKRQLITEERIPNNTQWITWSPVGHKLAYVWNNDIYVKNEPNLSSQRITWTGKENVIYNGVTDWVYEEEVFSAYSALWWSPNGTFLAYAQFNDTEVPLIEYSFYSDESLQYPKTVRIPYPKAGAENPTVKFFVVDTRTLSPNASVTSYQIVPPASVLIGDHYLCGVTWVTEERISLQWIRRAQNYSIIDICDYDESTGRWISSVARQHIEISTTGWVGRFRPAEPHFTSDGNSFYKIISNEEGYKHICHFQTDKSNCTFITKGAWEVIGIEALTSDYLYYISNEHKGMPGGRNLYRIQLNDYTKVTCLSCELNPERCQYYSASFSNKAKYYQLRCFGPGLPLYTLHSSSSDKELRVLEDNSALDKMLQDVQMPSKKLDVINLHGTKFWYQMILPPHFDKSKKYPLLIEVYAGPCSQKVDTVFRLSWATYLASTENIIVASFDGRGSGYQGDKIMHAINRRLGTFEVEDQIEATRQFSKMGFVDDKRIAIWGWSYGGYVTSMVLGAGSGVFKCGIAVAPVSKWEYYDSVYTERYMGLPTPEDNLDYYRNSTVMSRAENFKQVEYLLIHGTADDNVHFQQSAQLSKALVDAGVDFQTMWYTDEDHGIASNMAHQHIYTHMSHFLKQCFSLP
Description: (§6) 250 single laser-shot spectra were accumulated.
(§7) In order to investigate directly the influence of TFTSDY on the DP IV-catalyzed peptide hydrolysis the MALDI-TOF assay was used.
(§8) As described before (determination of t1/2) DP IV and TFTSDY were preincubated and the reaction was started by adding the enzyme/hexapeptide mixture to substrate/buffer mix. The control reaction mixture consisted of buffer, enzyme and substrate. From the curves of the first order exponential the initial rate (v1) for the control and the reversible inhibited reaction was calculated.
(§9) For the uninfluenced reaction the Michaelis-Menten-equation was used.
(§10) Vi was calculated from plotting the relative substrate concentration versus time.
(§11) Km is given, also the substrate concentration. [formula]
(§12) For the reversible inhibited reaction the following reaction was used to calculate Kl: [formula]

rec. human DP IV = target: T5, rec. human DP IV (Homo sapiens, UniProt P27487); assay: as above; type: biochemical; conditions: K1, inhibitory effect on DP IV-catalyzed peptide truncation
T5 construct: His6 (N); made in house; host or cells: Pichia pastoris X-33 (vector pPICαC, secreted into the medium)
T5 sequence (P27487 37-766): as the sequence (P27487 37-766 R560A) above, with A524R counted along it
Description: as §6, §7, §8, §9, §10, §11, §12

DP IV [6] = assay: Peptide truncation by DP IV after preincubation with TFTSDY (MALDI-TOF); type: biochemical
Description: as §6, §7, §8

C[C@H](NC(=O)[C@@H](N)Cc1ccc(O)cc1)C(=O)N[C@@H](CCC(=O)O)C(=O)N[C@@H](CO)C(=O)N[C@H](C(=O)N[C@@H](Cc1ccccc1)C(N)=O)[C@@H](C)O [YAESTF amide] (H-YAESTF-NH2; N-terminus assumed) gave a Ki ([1]; read-out: Ki) of 1.14 µM and a Ki ([2]; read-out: Ki) of 1.06 µM.

With C[C@@H](O)[C@H](NC(=O)CNC(=O)[C@H](CCC(=O)O)NC(=O)CNC(=O)[C@@H](N)Cc1ccc(O)cc1)C(=O)N[C@@H](Cc1ccccc1)C(=O)O [G^2GIP1-6] (H-YGEGTF-OH) the half-life (DP IV [3]) was “no degradation”.

CC[C@H](C)[C@H](NC(=O)[C@H](CO)NC(=O)[C@H](Cc1ccc(O)cc1)NC(=O)[C@H](CC(=O)O)NC(=O)[C@H](CO)NC(=O)[C@@H](NC(=O)[C@H](Cc1ccccc1)NC(=O)[C@@H](NC(=O)CNC(=O)[C@H](CCC(=O)O)NC(=O)[C@@H](NC(=O)[C@@H](N)Cc1ccc(O)cc1)C(C)C)[C@@H](C)O)[C@@H](C)CC)C(=O)N[C@@H](C)C(=O)N[C@@H](CCSC)C(=O)N[C@@H](CC(=O)O)C(=O)N[C@@H](CCCCN)C(=O)N[C@H](C(=O)N[C@@H](Cc1c[nH]cn1)C(=O)N[C@@H](CCC(N)=O)C(=O)N[C@@H](CCC(N)=O)C(=O)N[C@@H](CC(=O)O)C(=O)N[C@@H](Cc1ccccc1)C(=O)N[C@H](C(=O)N[C@@H](CC(N)=O)C(=O)N[C@@H](Cc1c[nH]c2ccccc12)C(=O)N[C@@H](CC(C)C)C(=O)N[C@@H](CC(C)C)C(=O)N[C@@H](C)C(=O)N[C@@H](CCC(N)=O)C(=O)N[C@@H](CCCCN)C(=O)O)C(C)C)[C@@H](C)CC [V^2GIP1-30] gave a half-life [4] of 4.97 h.

With CC(C)[C@H](NC(=O)[C@@H](N)Cc1ccc(O)cc1)C(=O)N[C@@H](CCC(=O)O)C(=O)NCC(=O)N[C@H](C(=O)N[C@@H](Cc1ccccc1)C(=O)O)[C@@H](C)O [V^2GIP1-6] (H-YVEGTF-OH) the half-life (DP IV [3]) was “no degradation”.

For CC[C@H](C)[C@H](NC(=O)[C@H](CO)NC(=O)[C@H](Cc1ccc(O)cc1)NC(=O)[C@H](CC(=O)O)NC(=O)[C@H](CO)NC(=O)[C@@H](NC(=O)[C@H](Cc1ccccc1)NC(=O)[C@@H](NC(=O)CNC(=O)[C@H](CCC(=O)O)NC(=O)[C@H](CO)NC(=O)[C@@H](N)Cc1ccc(O)cc1)[C@@H](C)O)[C@@H](C)CC)C(=O)N[C@@H](C)C(=O)N[C@@H](CCSC)C(=O)N[C@@H](CC(=O)O)C(=O)N[C@@H](CCCCN)C(=O)N[C@H](C(=O)N[C@@H](Cc1c[nH]cn1)C(=O)N[C@@H](CCC(N)=O)C(=O)N[C@@H](CCC(N)=O)C(=O)N[C@@H](CC(=O)O)C(=O)N[C@@H](Cc1ccccc1)C(=O)N[C@H](C(=O)N[C@@H](CC(N)=O)C(=O)N[C@@H](Cc1c[nH]c2ccccc12)C(=O)N[C@@H](CC(C)C)C(=O)N[C@@H](CC(C)C)C(=O)N[C@@H](C)C(=O)N[C@@H](CCC(N)=O)C(=O)N[C@@H](CCCCN)C(=O)O)C(C)C)[C@@H](C)CC [S^2GIP1-30], the half-life [4] was 2.29 h.

With “Glucagon (1-14): glucagon fragment 1-14 (HSQGTFTSDYSKYL; Glucagon; UniProt P01275 53-66, looked up, fragment) [reference compound]” the Ki [1] was “no inhibition”, the Ki [2] was “no inhibition” and the Ki [5] was “no inhibition”.

C[C@@H](O)[C@H](N)C(=O)N[C@@H](Cc1ccccc1)C(=O)N[C@H](C(=O)N[C@@H](CO)C(=O)N[C@@H](CC(=O)O)C(=O)N[C@@H](Cc1ccc(O)cc1)C(=O)O)[C@@H](C)O [TFTSDY] (H-TFTSDY-OH; N-terminus and C-terminus assumed) showed a Ki (porcine DP IV; substrate GIP) of 65.9 µM, a Ki (porcine DP IV; substrate GLP-1) of 13.7 µM and a Ki (porcine DP IV; substrate NPY) of 17.2 µM. The Ki (porcine DP IV; substrate RANTES1-15) was no less than 12300 µM, the Ki (porcine DP IV; substrate glucagon) was 6.8 µM and the Ki (rec. human DP IV; substrate GIP) was 14 µM. The Ki (rec. human DP IV; substrate PACAP-27) was 26.7 µM, the Ki (rec. human DP IV; substrate PACAP-38) was 2.8 µM and the Ki (rec. human DP IV; substrate glucagon) was 3.7 µM. The “influence on affinity of oligopeptides such as GIP, VIP, glucagon” value (DP IV [6]; DP IV preincubated with TFTSDY) was “considerably reduced”, the “influence on binding and hydrolysis of small dipeptide substrates” value (DP IV [6]; DP IV preincubated with TFTSDY) was “only slightly influenced” and the “effect on truncation of substrate by DP IV” value (DP IV [6]; substrate Rantes1-15, 160 μM TFTSDY) was “No differences”.

With CC[C@H](C)[C@H](NC(=O)[C@H](CO)NC(=O)[C@H](Cc1ccc(O)cc1)NC(=O)[C@H](CC(=O)O)NC(=O)[C@H](CO)NC(=O)[C@@H](NC(=O)[C@H](Cc1ccccc1)NC(=O)[C@@H](NC(=O)CNC(=O)[C@H](CCC(=O)O)NC(=O)CNC(=O)[C@@H](N)Cc1ccc(O)cc1)[C@@H](C)O)[C@@H](C)CC)C(=O)N[C@@H](C)C(=O)N[C@@H](CCSC)C(=O)N[C@@H](CC(=O)O)C(=O)N[C@@H](CCCCN)C(=O)N[C@H](C(=O)N[C@@H](Cc1c[nH]cn1)C(=O)N[C@@H](CCC(N)=O)C(=O)N[C@@H](CCC(N)=O)C(=O)N[C@@H](CC(=O)O)C(=O)N[C@@H](Cc1ccccc1)C(=O)N[C@H](C(=O)N[C@@H](CC(N)=O)C(=O)N[C@@H](Cc1c[nH]c2ccccc12)C(=O)N[C@@H](CC(C)C)C(=O)N[C@@H](CC(C)C)C(=O)N[C@@H](C)C(=O)N[C@@H](CCC(N)=O)C(=O)N[C@@H](CCCCN)C(=O)O)C(C)C)[C@@H](C)CC [G^2GIP1-30] the half-life [4] was 2.5 h.
